Laboratory results reported in patent publication US6737383B1, “Herbicidal oxadiazolidines” (priority 1999, dated 2004).

Legend:
bedstraw = assay: Test B pre/postemergence bedstraw; type: in vivo, Galium aparine; details: Preemergence
Source text: (§1) Seeds of bedstraw (Galium aparine), blackgrass (Alopecurus myosuroides), surinam grass (Brachiaria decumbens), cocklebur (Xanthium strumarium), corn (Zea mays), crabgrass (Digitaria sanguinalis), giant foxtail (Setaria faberii), morningglory (Ipomoea hederacea), pigweed (Amaranthus retroflexus), rape (Brassica napus), soybean (Glycine max), sugar beet (Beta vulgaris), velvetleaf (Abutilon theophrasti), wheat (Triticum aestivum), wild oat (Avena fatua) and purple nutsedge (Cyperus rotundus) tubers were planted and treated preemnergence with test chemicals formulated in a non-phytotoxic solvent mixture which included a surfactant.
(§2) At the same time, these crop and weed species were also treated with postemergence applications of test chemicals formulated in the same manner. Plants ranged in height from 2 to 18 cm (1- to 4-leaf stage) for postemergence treatments. Plant species in the flood test consisted of rice (Oryza sativa), smallflower flatsedge (Cyperus difformis), duck salad (Heteranthera limosa) and bamyardgrass (Echinochloa crus-galli) grown to the 2-leaf stage for testing. Treated plants and controls were maintained in a greenhouse for twelve to sixteen days, after which all species were compared to controls and visually evaluated. Plant response ratings, summarized in Table B, are based on a scale of 0 to 10 where 0 is no effect and 10 is complete control. A dash (−) response means no test result.

blackgrass = assay: Test B pre/postemergence blackgrass; type: in vivo, Alopecurus myosuroides; details: Preemergence
Source text: as §1, §2

surinam grass = assay: Test B pre/postemergence surinam grass; type: in vivo, Brachiaria decumbens; details: Preemergence
Source text: as §1, §2

cocklebur = assay: Test B pre/postemergence cocklebur; type: in vivo, Xanthium strumarium; details: Preemergence
Source text: as §1, §2

corn = assay: Test B pre/postemergence corn; type: in vivo, Zea mays; details: Preemergence; for Plant response rating, Corn: Rate 125 g/ha
Source text: as §1, §2

crabgrass = assay: Test B pre/postemergence crabgrass; type: in vivo, Digitaria sanguinalis; details: Preemergence; for Plant response rating, Crabgrass: Rate 125 g/ha
Source text: as §1, §2

giant foxtail = assay: Test B pre/postemergence giant foxtail; type: in vivo, Setaria faberii; details: Preemergence; for Plant response rating, Giant foxtail: Rate 125 g/ha
Source text: as §1, §2

morningglory = assay: Test B pre/postemergence morningglory; type: in vivo, Ipomoea hederacea; details: Preemergence; for Plant response rating, Morningglory: Rate 125 g/ha
Source text: as §1, §2

pigweed = assay: Test B pre/postemergence pigweed; type: in vivo, Amaranthus retroflexus; details: Preemergence; for Plant response rating, Redroot pigweed: Rate 125 g/ha
Source text: as §1, §2

rape = assay: Test B pre/postemergence rape; type: in vivo, Brassica napus; details: Preemergence; for Plant response rating, Rape: Rate 125 g/ha
Source text: as §1, §2

soybean = assay: Test B pre/postemergence soybean; type: in vivo, Glycine max; details: Preemergence; for Plant response rating, Soybean: Rate 125 g/ha
Source text: as §1, §2

sugar beet = assay: Test B pre/postemergence sugar beet; type: in vivo, Beta vulgaris; details: Preemergence; for Plant response rating, Sugarbeets: Rate 125 g/ha
Source text: as §1, §2

velvetleaf = assay: Test B pre/postemergence velvetleaf; type: in vivo, Abutilon theophrasti; details: Preemergence; for Plant response rating, Velvetleaf: Rate 125 g/ha
Source text: as §1, §2

wheat = assay: Test B pre/postemergence wheat; type: in vivo, Triticum aestivum; details: Preemergence; for Plant response rating, Wheat: Rate 125 g/ha
Source text: as §1, §2

wild oat = assay: Test B pre/postemergence wild oat; type: in vivo, Avena fatua; details: Preemergence; for Plant response rating, Wild oats: Rate 125 g/ha
Source text: as §1, §2

purple nutsedge = assay: Test B pre/postemergence purple nutsedge; type: in vivo, Cyperus rotundus; details: Preemergence; for Plant response rating, Nutsedge: Rate 125 g/ha
Source text: as §1, §2

[1] = Rate 62 g/ha, scale of 0 to 10 where 0 is no effect and 10 is complete control
[2] = Rate 125 g/ha, scale of 0 to 10 where 0 is no effect and 10 is complete control
[3] = Rate 250 g/ha, scale 0 (no effect) to 10 (complete control)
[4] = Rate 500 g/ha, scale of 0 to 10 where 0 is no effect and 10 is complete control
[5] = scale of 0 to 10 where 0 is no effect and 10 is complete control
[6] = Rate 500 g/ha, scale 0 to 10 (0 no effect, 10 complete control)

CC(C)N(C(=O)n1oc(=O)n(C(CF)CCl)c1=O)c1ccc(F)cc1 (racemic) [Compound 707]
3: Morningglory plant response rating (morningglory; [1]) | Plant response rating, Morningglory (morningglory; [5]) | Velvetleaf plant response rating (velvetleaf; [1])
6: B. signalgrass plant response rating (surinam grass; [1]) | Giant foxtail plant response rating (giant foxtail; [1]) | Sugarbeets plant response rating (sugar beet; [1]) | Plant response rating, Sugarbeets (sugar beet; [5])
9: Blackgrass plant response rating (blackgrass; [1]) | B. signalgrass plant response rating (surinam grass; [3]) | Plant response rating, Crabgrass (crabgrass; [5]) | Crabgrass plant response rating (crabgrass; [3]) | Wild oats plant response rating (wild oat; [3])
2: Corn plant response rating (corn; [3]) | Wheat plant response rating (wheat; [1]) | Plant response rating, Wheat (wheat; [5]) | Wheat plant response rating (wheat; [3])
0: Cocklebur plant response rating (cocklebur; [1]) | Plant response rating, Cocklebur (cocklebur; [2]) | Cocklebur plant response rating (cocklebur; [3]) | Plant response rating, Cocklebur (cocklebur; [4]) | Corn plant response rating (corn; [1]) | Plant response rating, Corn (corn; [5]) | Soybean plant response rating (soybean; [1]) | Plant response rating, Soybean (soybean; [5]) | Soybean plant response rating (soybean; [3]) | Nutsedge plant response rating (purple nutsedge; [1]) | Plant response rating, Nutsedge (purple nutsedge; [5]) | Nutsedge plant response rating (purple nutsedge; [3])
10: Bedstraw plant response rating (bedstraw; [3]) | Plant response rating, Bedstraw (bedstraw; [4]) | Plant response rating, Blackgrass (blackgrass; [2]) | Blackgrass plant response rating (blackgrass; [3]) | Plant response rating, Blackgrass (blackgrass; [4]) | Plant response rating, B. signalgrass (surinam grass; [4]) | Plant response rating, Giant foxtail (giant foxtail; [5]) | Giant foxtail plant response rating (giant foxtail; [3]) | Plant response rating, Redroot pigweed (pigweed; [5]) | Redroot pigweed plant response rating (pigweed; [3]) | Rape plant response rating (rape; [3])
8: Rape plant response rating (rape; [1]) | Plant response rating, Rape (rape; [5]) | Sugarbeets plant response rating (sugar beet; [3]) | Wild oats plant response rating (wild oat; [1]) | Plant response rating, Wild oats (wild oat; [5])
4: Morningglory plant response rating (morningglory; [3])
7: Bedstraw plant response rating (bedstraw; [1]) | Plant response rating, Bedstraw (bedstraw; [2]) | Plant response rating, B. signalgrass (surinam grass; [2])
5: Crabgrass plant response rating (crabgrass; [1]) | Plant response rating, Velvetleaf (velvetleaf; [5]) | Velvetleaf plant response rating (velvetleaf; [3])

CC(C)N(C(=O)n1oc(=O)n(C(C)C2=NOCC2)c1=O)c1ccccc1 (racemic) [Compound 729]
6: Blackgrass plant response rating (blackgrass; [1]) | Corn plant response rating (corn; [3]) | Wheat plant response rating (wheat; [6])
3: Rape plant response rating (rape; [3])
2: Morningglory plant response rating (morningglory; [3]) | Plant response rating, Rape (rape; [5]) | Soybean plant response rating (soybean; [3]) | Soybean plant response rating (soybean; [6]) | Plant response rating, Velvetleaf (velvetleaf; [5]) | Wild oats plant response rating (wild oat; [1]) | Nutsedge plant response rating (purple nutsedge; [6])
7: Crabgrass plant response rating (crabgrass; [1]) | Redroot pigweed plant response rating (pigweed; [1]) | Sugarbeets plant response rating (sugar beet; [6]) | Plant response rating, Wild oats (wild oat; [5])
5: B. signalgrass plant response rating (surinam grass; [1])
0: Bedstraw plant response rating (bedstraw; [1]) | Plant response rating, Bedstraw (bedstraw; [2]) | Cocklebur plant response rating (cocklebur; [1]) | Plant response rating, Cocklebur (cocklebur; [2]) | Cocklebur plant response rating (cocklebur; [3]) | Cocklebur plant response rating (cocklebur; [6]) | Corn plant response rating (corn; [1]) | Plant response rating, Corn (corn; [5]) | Morningglory plant response rating (morningglory; [1]) | Plant response rating, Morningglory (morningglory; [5]) | Rape plant response rating (rape; [1]) | Soybean plant response rating (soybean; [1]) | Plant response rating, Soybean (soybean; [5]) | Sugarbeets plant response rating (sugar beet; [1]) | Plant response rating, Sugarbeets (sugar beet; [5]) | Sugarbeets plant response rating (sugar beet; [3]) | Velvetleaf plant response rating (velvetleaf; [1]) | Wheat plant response rating (wheat; [1]) | Plant response rating, Wheat (wheat; [5]) | Nutsedge plant response rating (purple nutsedge; [1]) | Plant response rating, Nutsedge (purple nutsedge; [5])
9: Corn plant response rating (corn; [6]) | Plant response rating, Crabgrass (crabgrass; [5]) | Crabgrass plant response rating (crabgrass; [3]) | Giant foxtail plant response rating (giant foxtail; [1]) | Plant response rating, Giant foxtail (giant foxtail; [5]) | Giant foxtail plant response rating (giant foxtail; [3]) | Plant response rating, Redroot pigweed (pigweed; [5])
10: Plant response rating, Blackgrass (blackgrass; [2]) | Blackgrass plant response rating (blackgrass; [3]) | Blackgrass plant response rating (blackgrass; [6]) | Plant response rating, B. signalgrass (surinam grass; [2]) | B. signalgrass plant response rating (surinam grass; [3]) | B. signalgrass plant response rating (surinam grass; [6]) | Crabgrass plant response rating (crabgrass; [6]) | Giant foxtail plant response rating (giant foxtail; [6]) | Redroot pigweed plant response rating (pigweed; [3]) | Redroot pigweed plant response rating (pigweed; [6]) | Rape plant response rating (rape; [6]) | Wild oats plant response rating (wild oat; [3]) | Wild oats plant response rating (wild oat; [6])
8: Bedstraw plant response rating (bedstraw; [3]) | Bedstraw plant response rating (bedstraw; [6]) | Morningglory plant response rating (morningglory; [6]) | Velvetleaf plant response rating (velvetleaf; [6])
4: Velvetleaf plant response rating (velvetleaf; [3]) | Wheat plant response rating (wheat; [3])
